We go through 39 compounds from ChEMBL document CHEMBL1138280, “Synthesis and characterization of 8-ethynyl-1,3-dihydro-benzo[b][1,4]diazepin-2-one derivatives: new potent non-competitive metabotropic glutamate receptor 2/3 antagonists. Part 1” (Bioorg Med Chem Lett, 2007).

Active and inactive are the calls of the source. The rule behind the calls is not given here.

Experiment [1] concerns the target T1, Metabotropic glutamate receptor 2 (Rattus norvegicus, UniProt P31421). The experiment in a line: Displacement of [3H]LY354740 from rat mGluR2 expressed in CHO cells. The experiment is classed as cell-based.
The species entered for experiment [2] is Homo sapiens. The experiment in a line: Binding affinity to NMDA.
Experiment [3] concerns the target Metabotropic glutamate receptor 1 (Rattus norvegicus) (UniProt P23385). Briefly: Inhibition of glutamate-stimulated rat mGlu1a by calcium mobilization assay at 30 uM. The experiment is classed as functional.
In experiment [4] the target is Metabotropic glutamate receptor 5 (Rattus norvegicus) (UniProt P31424). Briefly: Inhibition of glutamate-stimulated rat mGlu5a by calcium mobilization assay at 30 uM. The experiment is classed as functional.
The species entered for another experiment is Rattus norvegicus. The experiment in a line: Displacement of [3H]L-AP4 from mGlu8a receptor.
For experiment [5], the species on record is Homo sapiens. The experiment in a line: Binding affinity to GABAA.
Experiment [6] has as its target Metabotropic glutamate receptor 2 (Rattus norvegicus) (UniProt P31421). Briefly: Antagonist activity at rat mGluR2 expressed in CHO cells co expressing human Kir3.1 assessed as glutamate-induced inward potassium current. The format is functional, cell-based.
Experiment [7] deals with Metabotropic glutamate receptor 3 (Rattus norvegicus) (UniProt P31422). Briefly: Antagonist activity at rat mGluR3 expressed in CHO cells co expressing human Kir3.2c assessed as glutamate-induced inward potassium current. The experiment is classed as functional, cell-based.
Experiment [8] addresses Metabotropic glutamate receptor 2 (Rattus norvegicus) (UniProt P31421). The experiment in a line: Displacement of [3H]LY354740 from rat mGluR2 expressed in CHO cells assessed as residual binding. The format is cell-based.
For experiment [9], the target named is T1, Metabotropic glutamate receptor 2. The experiment in a line: Antagonist activity at rat mGlu2 expressed in CHO cells assessed as inhibition of (1S,3R)-ACPD-stimulated GTPgammaS binding. The experiment is classed as functional, cell-based.

T1 sequence (P31421 whole entry): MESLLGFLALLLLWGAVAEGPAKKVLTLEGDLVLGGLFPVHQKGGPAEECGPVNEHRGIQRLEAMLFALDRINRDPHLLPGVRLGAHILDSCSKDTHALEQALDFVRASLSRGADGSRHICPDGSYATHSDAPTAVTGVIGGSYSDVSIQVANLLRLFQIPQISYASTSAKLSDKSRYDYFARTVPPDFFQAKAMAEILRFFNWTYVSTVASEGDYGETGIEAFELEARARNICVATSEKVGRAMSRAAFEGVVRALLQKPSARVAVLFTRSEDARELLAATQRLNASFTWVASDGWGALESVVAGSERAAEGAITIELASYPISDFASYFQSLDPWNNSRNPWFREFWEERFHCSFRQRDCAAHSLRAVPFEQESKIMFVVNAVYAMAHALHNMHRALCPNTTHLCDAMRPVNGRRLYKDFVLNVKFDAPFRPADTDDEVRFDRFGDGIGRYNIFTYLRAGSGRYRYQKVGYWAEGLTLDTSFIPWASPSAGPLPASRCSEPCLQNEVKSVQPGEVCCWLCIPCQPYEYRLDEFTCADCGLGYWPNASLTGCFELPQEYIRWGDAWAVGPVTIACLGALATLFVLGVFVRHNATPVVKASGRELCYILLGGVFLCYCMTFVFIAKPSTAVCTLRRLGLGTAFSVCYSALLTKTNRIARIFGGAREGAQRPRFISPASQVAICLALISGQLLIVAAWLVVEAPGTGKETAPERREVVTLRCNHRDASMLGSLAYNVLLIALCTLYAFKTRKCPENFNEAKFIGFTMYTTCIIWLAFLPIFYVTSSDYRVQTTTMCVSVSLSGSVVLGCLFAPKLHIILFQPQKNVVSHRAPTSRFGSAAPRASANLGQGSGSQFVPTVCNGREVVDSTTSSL
Sequence of Metabotropic glutamate receptor 2 (Rattus norvegicus) (P31421 19-872 limits assumed): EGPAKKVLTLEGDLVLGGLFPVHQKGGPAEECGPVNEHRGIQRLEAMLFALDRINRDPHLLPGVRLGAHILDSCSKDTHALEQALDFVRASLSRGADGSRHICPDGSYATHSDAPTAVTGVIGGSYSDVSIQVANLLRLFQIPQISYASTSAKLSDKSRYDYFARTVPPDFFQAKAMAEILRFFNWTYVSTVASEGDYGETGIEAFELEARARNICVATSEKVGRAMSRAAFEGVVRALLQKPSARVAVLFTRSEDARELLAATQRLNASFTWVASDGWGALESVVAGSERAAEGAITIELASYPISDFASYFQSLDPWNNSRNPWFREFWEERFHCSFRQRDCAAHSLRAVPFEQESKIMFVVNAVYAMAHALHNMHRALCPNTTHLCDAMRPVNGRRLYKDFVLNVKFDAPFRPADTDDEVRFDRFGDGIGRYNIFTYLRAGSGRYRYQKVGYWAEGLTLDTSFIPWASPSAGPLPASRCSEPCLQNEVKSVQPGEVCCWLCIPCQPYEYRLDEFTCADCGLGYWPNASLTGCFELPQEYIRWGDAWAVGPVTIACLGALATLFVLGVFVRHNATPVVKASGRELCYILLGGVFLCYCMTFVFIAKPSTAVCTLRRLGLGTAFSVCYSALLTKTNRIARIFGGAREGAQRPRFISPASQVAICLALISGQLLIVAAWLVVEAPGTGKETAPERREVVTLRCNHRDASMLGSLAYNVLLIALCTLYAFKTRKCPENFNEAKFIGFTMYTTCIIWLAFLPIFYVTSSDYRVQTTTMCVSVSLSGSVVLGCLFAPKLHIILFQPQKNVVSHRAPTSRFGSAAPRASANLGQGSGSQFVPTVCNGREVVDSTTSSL
Sequence of Metabotropic glutamate receptor 5 (Rattus norvegicus) (P31424 21-1203 limits assumed): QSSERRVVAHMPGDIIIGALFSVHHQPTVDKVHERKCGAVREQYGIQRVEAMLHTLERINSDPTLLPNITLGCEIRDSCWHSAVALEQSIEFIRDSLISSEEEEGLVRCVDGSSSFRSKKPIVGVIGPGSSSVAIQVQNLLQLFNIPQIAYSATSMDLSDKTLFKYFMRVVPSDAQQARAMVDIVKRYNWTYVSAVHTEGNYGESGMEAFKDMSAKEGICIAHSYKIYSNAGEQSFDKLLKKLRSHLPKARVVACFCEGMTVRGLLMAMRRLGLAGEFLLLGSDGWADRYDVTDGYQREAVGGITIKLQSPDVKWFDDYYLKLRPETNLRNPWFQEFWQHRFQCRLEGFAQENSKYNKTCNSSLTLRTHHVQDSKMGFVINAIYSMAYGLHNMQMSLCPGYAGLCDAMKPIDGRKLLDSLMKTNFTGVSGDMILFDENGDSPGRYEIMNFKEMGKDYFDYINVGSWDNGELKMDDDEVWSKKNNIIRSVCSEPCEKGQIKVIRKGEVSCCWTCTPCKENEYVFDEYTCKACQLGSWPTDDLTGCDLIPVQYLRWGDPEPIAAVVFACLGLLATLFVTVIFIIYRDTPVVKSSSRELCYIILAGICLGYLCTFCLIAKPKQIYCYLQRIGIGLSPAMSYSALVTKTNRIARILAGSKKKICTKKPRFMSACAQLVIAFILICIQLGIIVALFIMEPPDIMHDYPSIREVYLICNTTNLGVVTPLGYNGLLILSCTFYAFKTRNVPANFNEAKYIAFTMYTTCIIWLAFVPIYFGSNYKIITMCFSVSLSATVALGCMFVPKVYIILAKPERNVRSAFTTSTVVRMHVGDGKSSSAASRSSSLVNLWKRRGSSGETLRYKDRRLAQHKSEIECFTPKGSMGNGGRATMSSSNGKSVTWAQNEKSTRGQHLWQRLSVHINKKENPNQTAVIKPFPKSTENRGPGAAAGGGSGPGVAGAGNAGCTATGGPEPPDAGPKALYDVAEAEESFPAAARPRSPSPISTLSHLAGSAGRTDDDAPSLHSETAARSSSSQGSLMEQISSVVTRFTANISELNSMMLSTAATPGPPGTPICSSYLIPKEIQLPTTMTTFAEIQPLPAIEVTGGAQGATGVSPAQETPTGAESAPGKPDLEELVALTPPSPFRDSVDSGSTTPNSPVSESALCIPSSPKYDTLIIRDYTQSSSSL
Sequence of Metabotropic glutamate receptor 1 (Rattus norvegicus) (P23385 19-1199 limits assumed): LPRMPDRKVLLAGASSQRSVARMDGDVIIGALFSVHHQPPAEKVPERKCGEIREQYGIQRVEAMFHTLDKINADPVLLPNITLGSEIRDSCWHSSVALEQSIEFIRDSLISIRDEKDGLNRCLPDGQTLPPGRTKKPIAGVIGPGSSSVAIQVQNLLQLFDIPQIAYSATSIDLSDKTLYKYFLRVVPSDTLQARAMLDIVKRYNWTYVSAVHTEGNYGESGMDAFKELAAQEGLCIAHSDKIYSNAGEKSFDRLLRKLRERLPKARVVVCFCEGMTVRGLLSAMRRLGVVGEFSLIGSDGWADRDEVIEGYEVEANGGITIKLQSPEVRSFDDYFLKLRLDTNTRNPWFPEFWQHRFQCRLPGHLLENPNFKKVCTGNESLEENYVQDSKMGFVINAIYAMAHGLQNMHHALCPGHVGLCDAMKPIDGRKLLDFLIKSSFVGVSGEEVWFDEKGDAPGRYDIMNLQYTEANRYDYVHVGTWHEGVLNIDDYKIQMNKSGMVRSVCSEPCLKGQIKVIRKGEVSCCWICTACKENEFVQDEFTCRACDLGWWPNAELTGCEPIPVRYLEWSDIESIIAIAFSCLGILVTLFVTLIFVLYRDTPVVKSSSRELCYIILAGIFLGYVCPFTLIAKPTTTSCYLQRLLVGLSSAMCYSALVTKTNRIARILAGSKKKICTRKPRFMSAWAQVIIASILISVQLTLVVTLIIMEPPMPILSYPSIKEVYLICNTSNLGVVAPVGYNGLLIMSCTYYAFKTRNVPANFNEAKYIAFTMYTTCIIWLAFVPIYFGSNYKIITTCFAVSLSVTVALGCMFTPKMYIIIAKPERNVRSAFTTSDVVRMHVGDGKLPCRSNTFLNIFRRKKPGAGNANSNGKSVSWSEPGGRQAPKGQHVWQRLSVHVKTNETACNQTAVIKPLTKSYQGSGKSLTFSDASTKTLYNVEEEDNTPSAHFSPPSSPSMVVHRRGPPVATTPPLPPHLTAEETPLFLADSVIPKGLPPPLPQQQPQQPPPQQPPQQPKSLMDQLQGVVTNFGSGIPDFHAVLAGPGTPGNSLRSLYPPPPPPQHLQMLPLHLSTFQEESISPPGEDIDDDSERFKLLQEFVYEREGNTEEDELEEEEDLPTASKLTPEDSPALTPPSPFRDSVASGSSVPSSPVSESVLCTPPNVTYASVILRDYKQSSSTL
Sequence of Metabotropic glutamate receptor 3 (Rattus norvegicus) (P31422 23-879 limits assumed): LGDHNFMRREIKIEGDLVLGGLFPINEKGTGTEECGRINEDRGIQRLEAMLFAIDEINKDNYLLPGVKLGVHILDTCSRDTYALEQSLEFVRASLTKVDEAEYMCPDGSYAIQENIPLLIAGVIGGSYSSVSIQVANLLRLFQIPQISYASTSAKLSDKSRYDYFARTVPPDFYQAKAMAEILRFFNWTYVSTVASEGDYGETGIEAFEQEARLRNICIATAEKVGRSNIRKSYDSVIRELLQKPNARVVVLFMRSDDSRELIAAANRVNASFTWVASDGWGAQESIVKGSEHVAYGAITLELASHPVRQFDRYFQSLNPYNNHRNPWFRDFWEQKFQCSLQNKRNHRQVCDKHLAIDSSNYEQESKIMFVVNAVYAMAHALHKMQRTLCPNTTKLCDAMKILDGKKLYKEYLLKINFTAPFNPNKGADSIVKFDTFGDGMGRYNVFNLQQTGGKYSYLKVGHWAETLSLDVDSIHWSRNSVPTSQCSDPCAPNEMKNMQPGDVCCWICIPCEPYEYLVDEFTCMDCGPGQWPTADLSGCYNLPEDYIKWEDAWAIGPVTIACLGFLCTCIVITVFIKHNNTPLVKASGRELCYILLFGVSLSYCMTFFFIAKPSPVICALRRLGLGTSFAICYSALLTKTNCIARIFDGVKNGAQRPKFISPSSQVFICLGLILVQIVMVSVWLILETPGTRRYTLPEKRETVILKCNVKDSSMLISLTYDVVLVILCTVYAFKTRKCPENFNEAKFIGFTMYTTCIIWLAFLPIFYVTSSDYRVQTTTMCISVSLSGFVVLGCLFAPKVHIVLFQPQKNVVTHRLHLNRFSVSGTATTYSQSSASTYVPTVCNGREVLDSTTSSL

`N#CCOc1cc2c(cc1C#Cc1ccccc1)NC(=O)CC(c1cccc(C#N)c1)=N2`: in experiment [1], the IC50 worked out at 18 nM.

`COc1cccc(C2=Nc3ccc(C#Cc4ccccc4)cc3NC(=O)C2)c1` came in with a concentration for half-maximal inhibition (IC50) in experiment [1] of 962 nM.

In experiment [1], `COC1CCN(c2cc3c(cc2C#Cc2ccccc2)NC(=O)CC(c2cccc(C#N)c2)=N3)CC1` displayed a concentration for half-maximal inhibition (IC50) of 82 nM.

For `O=C1CC(c2ccccc2)=Nc2ccc(C#Cc3ccccc3)cc2N1`, in experiment [1], the IC50 worked out at 26 nM.

`N#Cc1cccc(C2=Nc3cc(N4CCOCC4)c(C#Cc4ccccc4)cc3NC(=O)C2)c1` came in with an IC50 in experiment [1] of 378 nM.

In experiment [1], `N#Cc1cccc(C2=Nc3ccc(C#Cc4nccs4)cc3NC(=O)C2)c1` registered an IC50 of 300 nM.

Compound `CN1CCN(c2cc3c(cc2C#Cc2ccccc2)NC(=O)CC(c2cccc(C#N)c2)=N3)CC1` gave an IC50 in experiment [1] of 278 nM.

`CC(C)(O)C#Cc1ccc2c(c1)NC(=O)CC(c1cccc(C#N)c1)=N2`: the half-inhibitory concentration (IC50) in [1] turned out to be 26000 nM.

Turning to `CN(C)c1cc2c(cc1C#Cc1ccccc1)NC(=O)CC(c1cccc(C#N)c1)=N2`, the IC50 in experiment [1] is 60 nM.

Turning to `N#Cc1cccc(C2=Nc3cc(OCC(N)=O)c(C#Cc4ccccc4)cc3NC(=O)C2)c1`, the IC50 in [1] stood at 2400 nM.

In the case of `N#Cc1cccc(C2=Nc3cc(N4CCSCC4)c(C#Cc4ccccc4)cc3NC(=O)C2)c1`, the IC50 in experiment [1] turned out to be 40 nM.

`O=C1CC(c2cccc(C(F)(F)F)c2)=Nc2ccc(C#Cc3ccccc3)cc2N1`: in experiment [1], the IC50 came to 268 nM.

In the case of `COc1cccc(C2=Nc3ccc(C)cc3NC(=O)C2)c1`, the half-maximal inhibitory concentration (IC50) in experiment [1] was found to be 6580 nM.

For `O=C1CC(c2cccc(Cl)c2)=Nc2ccc(C#Cc3ccccc3)cc2N1`, in experiment [1], the IC50 amounted to 80 nM.

`CN1CCN(C(=O)c2cccc(C3=Nc4ccc(C#Cc5ccccc5)cc4NC(=O)C3)c2)CC1` came in with a half-maximal inhibitory concentration (IC50) in experiment [1] of 1040 nM.

For the compound `N#Cc1cccc(C2=Nc3cc(N4CCS(=O)(=O)CC4)c(C#Cc4ccccc4)cc3NC(=O)C2)c1`, in [1], the half-inhibitory concentration (IC50) worked out at 160 nM.

Turning to `COc1ccc(C#Cc2ccc3c(c2)NC(=O)CC(c2cccc(C#N)c2)=N3)cc1`, the concentration for half-maximal inhibition (IC50) in experiment [1] turned out to be 68 nM.

As for `N#Cc1cccc(C2=Nc3ccc(C#Cc4ccccc4Cl)cc3NC(=O)C2)c1`, in experiment [1], the IC50 was determined as 76 nM.

In experiment [1], `COCCOc1cc2c(cc1C#Cc1ccccc1)NC(=O)CC(c1cccc(C#N)c1)=N2` displayed an IC50 of 28 nM.

With `COc1cc2c(cc1C#Cc1ccccc1)NC(=O)CC(c1cccc(C#N)c1)=N2`, in [1], the half-inhibitory concentration (IC50) is 92 nM.

`Cc1ccc2c(c1)NC(=O)CC(c1cccc(C(F)(F)F)c1)=N2` displayed a half-inhibitory concentration (IC50) in experiment [1] of 1530 nM.

The compound `Cc1ccc2c(c1)NC(=O)CC(c1cccc(Cl)c1)=N2` came in with an IC50 in experiment [1] of 2820 nM.

With `NC(=O)c1cccc(C2=Nc3ccc(C#Cc4ccccc4)cc3NC(=O)C2)c1`, the 50% inhibitory concentration (IC50) in experiment [1] was 358 nM.

As for `O=C1CC(c2cccc(I)c2)=Nc2ccc(C#Cc3ccccc3)cc2N1`, the IC50 in experiment [1] came to 154 nM.

Regarding `N#Cc1cccc(C2=Nc3ccc(C#Cc4ccccc4)cc3NC(=O)C2)c1`, the result (in the experiment listed under Homo sapiens [2]; in [3]; in experiment [4]; in the experiment filed under Rattus norvegicus; in the experiment filed under Homo sapiens [5]) was inactive. In experiment [1], this compound returned an IC50 of 34 nM. In addition, the result in experiment [6] and in experiment [7] was Active. Moreover, the Activity in experiment [8] was determined as 25%.

Take `N#Cc1cccc(C2=Nc3ccc(C#Cc4cccs4)cc3NC(=O)C2)c1`: the IC50 in experiment [1] amounted to 32 nM.

`Cc1ccc2c(c1)NC(=O)CC(c1cccc(C#N)c1)=N2`: the IC50 in [1] stood at 2900 nM.

The compound `Cc1ccc(C#Cc2ccc3c(c2)NC(=O)CC(c2cccc(C#N)c2)=N3)cc1` registered an IC50 in experiment [1] of 64 nM.

Consider `COc1ccc(C2C(C(=O)OCCN(C)C)=C(C)N=C3SC(c4c(Cl)cccc4Cl)=CN32)cc1` (configuration not stated), for which, in [9], the concentration for half-maximal inhibition (IC50) came out at 30000 nM.

Consider `CC(C)O/C(=C\n1cncn1)c1ccc(Cl)cc1Cl`, for which the half-maximal inhibitory concentration (IC50) in [9] was found to be 6000 nM.

`C=C(C)C#Cc1ccc2c(c1)NC(=O)CC(c1cccc(C#N)c1)=N2` gave a half-maximal inhibitory concentration (IC50) in experiment [1] of 400 nM.

`CC(C)(C)NC(=O)COc1cc2c(cc1C#Cc1ccccc1)NC(=O)CC(c1cccc(C#N)c1)=N2` showed an IC50 in experiment [1] of 26 nM.

In experiment [1], `N#Cc1cccc(C2=Nc3ccc(C#Cc4ccccn4)cc3NC(=O)C2)c1` had an IC50 of 870 nM.

In experiment [1], `N#Cc1cccc(C2=Nc3cc(OCC(=O)O)c(C#Cc4ccccc4)cc3NC(=O)C2)c1` came in with an IC50 of 600 nM.

The compound `N#Cc1cccc(C2=Nc3ccc(C#Cc4ccc(F)cc4F)cc3NC(=O)C2)c1` showed an IC50 in experiment [1] of 480 nM.

In experiment [1], `N#Cc1cccc(C2=Nc3ccc(C#Cc4ccccc4F)cc3NC(=O)C2)c1` had a half-inhibitory concentration (IC50) of 30 nM.

Regarding `N#Cc1cccc(C2=Nc3cc(N4CC[S+]([O-])CC4)c(C#Cc4ccccc4)cc3NC(=O)C2)c1`, the IC50 in experiment [1] was 446 nM.

For the compound `N#Cc1cccc(C2=Nc3ccc(C#Cc4ccc(F)cc4)cc3NC(=O)C2)c1`, the half-inhibitory concentration (IC50) in experiment [1] turned out to be 34 nM.

`O=C1CC(c2cccc(C(=O)N3CCOCC3)c2)=Nc2ccc(C#Cc3ccccc3)cc2N1`: the half-inhibitory concentration (IC50) in experiment [1] is 360 nM.
